Among the data in patent US20170296550A1, “ARYL SULTAM DERIVATIVES AS RORc MODULATORS” (Genentech, Inc., priority 2013, published 2017) are IC50 values, retold here.

For the assay, the target named is T1, RORc (Homo sapiens, UniProt P51449).
T1 construct: host or cells: E. coli
T1 sequence (P51449 269-508 limits assumed): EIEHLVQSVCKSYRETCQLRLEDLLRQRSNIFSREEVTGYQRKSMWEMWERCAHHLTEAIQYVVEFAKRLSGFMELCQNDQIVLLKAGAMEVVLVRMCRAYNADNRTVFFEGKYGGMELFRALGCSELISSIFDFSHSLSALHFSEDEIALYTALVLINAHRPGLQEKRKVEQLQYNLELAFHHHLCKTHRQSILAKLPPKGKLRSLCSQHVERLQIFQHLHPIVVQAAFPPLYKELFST
Put plainly: In Vitro RORc Ligand Binding Assay (25-[3H]hydroxycholesterol radioligand, filter plate). Conditions: RORc ligand binding domain 0.6 ug/mL; 6 nM 25-[3H]hydroxycholesterol; 3 h at 25° C. How it is done: Example 68 In Vitro RORc Ligand Binding Assay
This assay was used to determine a compound's potency in inhibiting activity of RORc by determining, Kiapp, IC50, or percent inhibition values.
On day of the assay, 100 uL of 0.05% CHAPS (in deionized H2O) was added to all wells of the GFB Unifilter plate and allowed soak for 1 h. A wash buffer of 50 mM HEPES (pH 7.4), 150 mM NaCl, and 5 mM MgCl2 was prepared to wash the filter plate. To prepare an assay buffer, BSA was added to the wash buffer to reach 0.01% and DTT was added to reach 1 mM.
For IC50 mode, 10 mM compound stocks were serially diluted in DMSO with DMSO to give 20× required final concentration in DMSO (15 uL compound+30 uL DMSO). The 20× compound stocks were diluted in DMSO with Assay Buffer 4-fold to reach 5× the final test concentration in 25% DMSO (10 uL compound+30 uL Assay Buffer). Solutions were mixed by aspiration several times with a pipette set on 50 uL volume. For the assay, 10 uL of 5× compound stock solutions in 25% DMSO were added to the assay plate in duplicate.
For two point screening, 10 mM stock compound solutions were diluted in DMSO to obtain 200 uM (20× the high test concentration) and then diluted 10-fold further to reach 20 uM (20× the low test concentration). The 20× stocks were diluted 4-fold with Assay Buffer (10 uL compound+30 uL Assay Buffer) to reach 5× the test concentrations (50 uM and 5 uM) and 10 uL were added to two assay plates for the duplicate wells. With each concentration tested on 2 plates, each set of 80 compounds used 4 assay plates (1 uM and 10 uM, with n=2).
25-hydroxycholesterol (1 uM) was used to determine the level of NSB signal is prepared in DMSO as for compounds above, then diluted in Assay Buffer to give a final concentration of 5 uM. For 25-hydroxycholesterol in 25% DMSO/75% Assay Buffer; 10 uL per well was used for NSB samples. Wells for Total Binding and No Receptor sample determination contained 10 uL of 25% DMSO/75% Assay Buffer per well.
Radioligand (25-[^3H]hydroxycholesterol) Preparation
25-[^3H]hydroxycholesterol was dilute in Assay Buffer to obtain 15 nM and vortex to mix. Add 20 uL to all wells to reach 6 nM final in the assay.
Stock receptor solution was diluted in assay buffer to obtain 1.5 ug/mL in Assay Buffer. 20 uL was added to all wells. For No R samples, 20 uL Assay Buffer was substituted for receptor solution.
Assay plates were 96-well polypropylene V-bottom plates. 10 uL of 5× compound in 25% DMSO/75% Assay Buffer was added to Test wells. 10 uL of 25% DMSO/75% Assay Buffer was added to Total Binding or No Receptor wells. 10 uL of 5 uM 25-hydroxycholesterol in 25% DMSO/75% Assay Buffer was added to NSB wells. 20 uL of 15 nM 25-[^3H]hydroxycholesterol prepared in Assay Buffer was added to all wells. 20 uL of 1.5 ug/mL RORc receptor was added to wells (or […] Assay Buffer to No R wells). Following addition to the wells, the plates were incubated 3 h at 25° C.
Using a Packard Filtermate Harvester, the filter plate were washed 4 times following transfer of the incubated samples. Plates were dry-filtered completely (2 h at 50° C. or overnight at room temperature). 50 uL Microscint 0 was added to all wells and read on Topcount protocol Inverted.
Final concentrations were as follows: 50 mM HEPES buffer (pH 7.4); 150 mM NaCl; 1 mM DTT; 5 mM MgCl2; 0.01% BSA; 5% DMSO; 0.6 ug/mL RORc receptor; 6 nM 25-[^3H]hydroxycholesterol. For NSB wells, 1 uM 25-hydroxycholesterol was also present.
`Cc1n[nH]c(C)c1-c1ccc(CN2[C@@H](C)CCC(c3ccccc3)S2(=O)=O)c(F)c1` (single isomer, unassigned) [Example 1] showed a half-inhibitory concentration (IC50) of 527 nM. That is a sub-micromolar value.

On to `Cc1noc(C)c1C(=O)Nc1ccc(CN2[C@@H](C)CCC(c3ccccc3)S2(=O)=O)c(F)c1` (single isomer, unassigned) [Example 4], for which the concentration for half-maximal inhibition (IC50) was 27 nM. Against the preceding compound, the IC50 is about 20-fold lower.

In the case of `C[C@H]1CCC(c2ccccc2)S(=O)(=O)N1Cc1ccc(C(=O)NCc2cn[nH]c2)cc1` (single isomer, unassigned) [Example 7], the IC50 amounted to 502 nM.

For `Cc1cc(NC(=O)c2ccc(CN3[C@@H](C)CCC(c4ccccc4)S3(=O)=O)cc2)n(C)n1` (single isomer, unassigned) [Example 9], the half-inhibitory concentration (IC50) worked out at 969 nM.

As for `C[C@H]1CCC(c2ccccc2)S(=O)(=O)N1Cc1ccc(C(=O)Nc2nc[nH]c2C#N)cc1` (single isomer, unassigned) [Example 10], the concentration for half-maximal inhibition (IC50) came out at 2900 nM.

Consider `C[C@H]1CCC(c2ccccc2)S(=O)(=O)N1Cc1ccc(C(=O)Nc2ncnn2C)cc1` (single isomer, unassigned) [Example 21], for which the 50% inhibitory concentration (IC50) came out at 3280 nM.

Regarding `C[C@H]1CCC(c2ccccc2)S(=O)(=O)N1Cc1ccc(-c2ccc(S(N)(=O)=O)cc2)cc1F` (single isomer, unassigned) [Example 22], the concentration for half-maximal inhibition (IC50) was 87 nM.

With `C[C@H]1CCC(c2ccccc2)S(=O)(=O)N1Cc1ccc(-c2cccc(CC(N)=O)c2)cc1F` (single isomer, unassigned) [Example 25], the IC50 turned out to be 208 nM. Compared with the last compound, the IC50 is about 2.4-fold higher.

For `C[C@H]1CCC(c2ccccc2)S(=O)(=O)N1Cc1ccc(-c2ccc(C(=O)N(C)C)cc2)cc1F` (single isomer, unassigned) [Example 30], the IC50 worked out at 160 nM.

With `C[C@H]1CCC(c2ccccc2)S(=O)(=O)N1Cc1ccc(-c2csc(S(C)(=O)=O)n2)cc1F` (single isomer, unassigned) [Example 37], the IC50 is 273 nM.

As for `C[C@H]1CCC(c2ccccc2)S(=O)(=O)N1Cc1ccc(-c2ccc(S(C)(=O)=O)nn2)cc1F` (single isomer, unassigned) [Example 41], the IC50 worked out at 289 nM.

As to `C[C@H]1CCC(c2ccccc2)S(=O)(=O)N1Cc1ccc(-c2n[nH]c(S(C)(=O)=O)n2)cc1F` (single isomer, unassigned) [Example 42], the half-maximal inhibitory concentration (IC50) was found to be 2170 nM.

The compound `C[C@H]1CCC(c2ccccc2)S(=O)(=O)N1Cc1ccc(-c2cnc(NS(C)(=O)=O)nc2)cc1F` (single isomer, unassigned) [Example 43] registered an IC50 of 275 nM.

Compound `Cc1ccnc(COc2ccc(CN3[C@@H](C)CCC(c4ccccc4)S3(=O)=O)cc2)n1` (single isomer, unassigned) [Example 44] gave an IC50 of 963 nM. Compared with the last compound, the IC50 is about 3.5-fold higher.

In the case of `CC(Oc1ccc(CN2[C@@H](C)CCC(c3ccccc3)S2(=O)=O)cc1)c1cnn(C)c1` (single isomer, unassigned) [Example 45], the IC50 came to 693 nM. The IC50 values of the last two compounds are within 1.5-fold of each other.

In turn, `CC(Oc1ccc(CN2[C@@H](C)CCC(c3ccccc3)S2(=O)=O)cc1)c1ncccn1` (single isomer, unassigned) [Example 50] registered an IC50 of 1350 nM.

Regarding `C[C@H]1CCC(c2ccccc2)S(=O)(=O)N1Cc1ccc(OCc2ccncc2)cc1` (single isomer, unassigned) [Example 57], the IC50 came out at 114 nM. This IC50 lies about 12-fold lower than the previous one.

Consider `C[C@H]1CCC(c2ccccc2)S(=O)(=O)N1Cc1ccc(OCc2cccnc2)cc1` (single isomer, unassigned) [Example 58], for which the concentration for half-maximal inhibition (IC50) was 106 nM.

In turn, `Cc1ncsc1CCOc1ccc(CN2[C@@H](C)CCC(c3ccccc3)S2(=O)=O)cc1` (single isomer, unassigned) [Example 61] returned a half-maximal inhibitory concentration (IC50) of 151 nM.

As to `C[C@H]1CCC(c2ccccc2)S(=O)(=O)N1Cc1ccc(-c2ccc3nncn3c2)cc1F` (stereo partly drawn) [Example 5, 6-[3-Fluoro-4-((3S)-3-methyl-1,1-dioxo-6-phenyl-[1,2]thiazinan-2-ylmethyl)-phenyl]-[1,2,4]triazolo[4,3-a]pyridine], the IC50 turned out to be 454 nM.

`C[C@H]1CCC(c2ccccc2)S(=O)(=O)N1Cc1ccc(C(=O)NCCn2ccnc2)cc1` (stereo partly drawn) [Example 6, N-(2-Imidazol-1-yl-ethyl)-4-((3S)-3-methyl-1,1-dioxo-6-phenyl-[1,2]thiazinan-2-ylmethyl)-benzamide] displayed a concentration for half-maximal inhibition (IC50) of 3920 nM.

`C[C@H]1CC[C@H](c2ccccc2)S(=O)(=O)N1Cc1ccc(C(=O)NCCCn2ccnc2)cc1` [Example 8, N-(3-Imidazol-1-yl-propyl)-4-((3S)-3-methyl-1,1-dioxo-6-phenyl-[1,2]thiazinan-2-ylmethyl)-benzamide] registered an IC50 of 4980 nM.

`Cc1cc(NC(=O)c2ccc(CN3[C@@H](C)CCC(c4ccccc4)S3(=O)=O)cc2)n[nH]1` (stereo partly drawn) [Example 11, 4-((3S)-3-Methyl-1,1-dioxo-6-phenyl-[1,2]thiazinan-2-ylmethyl)-N-(5-methyl-1H-pyrazol-3-yl)-benzamidc] came in with an IC50 of 1220 nM.

In the case of `Cc1cc(NC(=O)c2ccc(CN3[C@@H](C)CCC(c4ccccc4)S3(=O)=O)cc2)no1` (stereo partly drawn) [Example 12, 4-((3S)-3-Methyl-1,1-dioxo-6-phenyl-[1,2]thiazinan-2-ylmethyl)-N-(5-methyl-isoxazol-3-yl)-benzamide], the 50% inhibitory concentration (IC50) was found to be 404 nM.

The compound `C[C@H]1CCC(c2ccccc2)S(=O)(=O)N1Cc1ccc(C(=O)Nc2ccon2)cc1` (stereo partly drawn) [Example 13, N-Isoxazol-3-yl-4-((3S)-3-methyl-1,1-dioxo-6-phenyl-[1,2]thiazinan-2-ylmethyl)-benzamide] had an IC50 of 166 nM.

Compound `C[C@H]1CCC(c2ccccc2)S(=O)(=O)N1Cc1ccc(C(=O)NCc2noc(C(N)=O)n2)cc1` (stereo partly drawn) [Example 14, 3-{[4-((3S)-3-Methyl-1,1-dioxo-6-phenyl-[1,2]thiazinan-2-ylmethyl)-benzoylamino]-methyl}-[1,2,4]oxadiazole-5-carboxylic acid amide] came in with a half-maximal inhibitory concentration (IC50) of 1390 nM. This IC50 lies about 8.4-fold higher than the previous one.

In turn, `C[C@H]1CCC(c2ccccc2)S(=O)(=O)N1Cc1ccc(C(=O)NCc2noc(C(=O)N(C)C)n2)cc1` (stereo partly drawn) [Example 15, 3-{[4-((3S)-3-Methyl-1,1-dioxo-6-phenyl-[1,2]thiazinan-2-ylmethyl)-benzoylamino]-methyl}-[1,2,4]oxadiazole-5-carboxylic acid dimethylamide] yielded a concentration for half-maximal inhibition (IC50) of 5190 nM.

For `C[C@H]1CCC(c2ccccc2)S(=O)(=O)N1Cc1ccc(C(=O)N(C)c2ncco2)cc1` (stereo partly drawn) [Example 16, N-Methyl-4-((3S)-3-methyl-1,1-dioxo-6-phenyl-[1,2]thiazinan-2-ylmethyl)-N-oxazol-2-yl-benzamide], the IC50 amounted to 4840 nM.

For `C[C@H]1CCC(c2ccccc2)S(=O)(=O)N1Cc1ccc(C(=O)NCc2ccnn2C)cc1` (stereo partly drawn) [Example 17, 4-((3S)-3-Methyl-1,1-dioxo-6-phenyl-[1,2]thiazinan-2-ylmethyl)-N-(2-methyl-2H-pyrazol-3-ylmethyl)-benzamide], the IC50 stood at 1980 nM.

In turn, `CC(NC(=O)c1ccc(CN2[C@@H](C)CCC(c3ccccc3)S2(=O)=O)cc1)c1ncc[nH]1` (stereo partly drawn) [Example 18, N-[1-(1H-Imidazol-2-yl)-ethyl]-4-((3S)-3-methyl-1,1-dioxo-6-phenyl-[1,2]thiazinan-2-ylmethyl)-benzamide] registered a half-maximal inhibitory concentration (IC50) of 1920 nM.
